Measured values taken from patent US20160007541A1, “Increasing Harvest (Yield) of Crop Plants Utilizing Thermodynamic Laws on a Whole Plant Basis to Detect Optimal Periods for Exothermic Energy Versus Endothermic Energy Needs” (Stoller Enterprises, Inc., priority 2014, published 2016).

Tested on: tomato plants
Test: Tomato yield, Brix and taste after cobalt via drip irrigation (Table 4)
Format: in vivo
Details: base fertility plus cobalt @ 1 pt/acre over 5 weeks

## [Co] [cobalt]
Base 2
  Taste test 14 scientific personnel: 2.8
Base 4.8
  % Brix (sugars): 5.5%
Base 29.6
  Yield (No. of tons per acre): 33.9 tons per acre
Base 244
  Yield (number of tomato fruits per acre × 1,000): 288 fruits per acre × 1,000
